# From US9243024B2, “Aptamer-mediated drug release” (priority 2009, dated 2016)
# Columns and labels:
# [1] = system: matrix-displayed aptamer (SEQ ID NO:11) on Biacore SA chip; assay: Biacore SPR: loading and release from aptamer-coated SA chip; assay type: binding
# Procedure: For SPR experiments, Biacore X system and commercially available Biacore SA sensor chips from Biacore AB (Uppsala, Sweden) were used.
# A 1 μM solution of aptamer aptamer 5′-/5BioTEG//iSp18//iSp18/ATCTCGGTCTCGGGACGACAGGATTTTCCTCAATGAAGTGGGTCGTCCCGAGA (SEQ ID NO:11) in 10 mM HEPES at pH 7.4, 150 mM NaCl, and 3 mM EDTA (in HBS-EP) was applied to one of the SA sensor chip's two channels for 20 min at 4 μL min^−1, followed by a 120 sec wash with 4 M urea/15 mM EDTA to remove any nonspecifically adsorbed material. The aptamer used for these SPR experiments was shorter by two bases relative to the aptamer used in the microsphere experiments (see SEQ ID NO:7). According to the Biacore SA chip literature, the matrix was a highly irregular 3D dextran hydrogel recognition matrix with a height of approximately 100-200 nm and an uneven distribution of streptavidin. The matrix was coated with biotinylated aptamer containing two 18-atom hexaethylene glycol spacers between the biotin and the oligonucleotide. On the basis of changes in SPR response, the aptamer was coated at saturation densities of 0.12-to-0.15 pmol mm^−2, an estimated average inter-aptamer distance of 10-to-11 nm (based on a 100 nm height for the dextran layer. 1.2-to-1.6 molecules of insulin-conjugate bound per aptamer on initial loading, with oligonucleotide binding (i.e. no insulin attached) at 1.2 per aptamer. Where possible, the channel with no aptamer or insulin-conjugate/oligonucleotide deposited acted as a blank for correction of system influence. When the additional channel was not able to be used as a blank, data for the first 10 minutes of any buffer change was omitted due to artifacts occurring in this time period caused by washes with the new buffer.
# Matrix-Aptamer Hybridization with (5). (5) 1 μM in NaCl (140 mM), KCl (5 mM), and MgCl2 (1.2 mM), buffered to pH 7.4 with Tris (20 mM), was dispensed on the aptamer displaying channel at 1 μL min^−1 until saturation (80 min), with the other channel used as a system influence control when possible. Monitoring of conjugate (5) release was taken 15 minutes after the end of the conjugate (5) application time to allow for weak non-specifically bound conjugate to be washed from the surface. Conjugate dissociation in real time was measured through the decrease in mass, again using the formula 1000 R.U.=[…]. In some experiments, instrumental instabilities were observed as occasional spikes in sensorgrams during long-time monitoring.
# Release of the insulin-conjugate (i→ii in FIG. 1A) was studied in two different systems: 1) release from a dextran matrix (SA-Chip, Biacore), under continuous flow, with surface plasmon resonance (SPR) monitoring, and 2) release from the surface of non-porous beads followed by fluorescence monitoring. […]
# [2] = system: aptamer (SEQ ID NO:7) functionalized microspheres loaded with conjugate (5); assay: Triggered release of insulin conjugate (5) from aptamer coated microspheres, fluorescence monitoring
# Procedure: (for a biotin binding site:aptamer ratio of 5:1) Streptavidin functionalized magnetic microspheres (Bangs Laboratories), 2 mL, were washed with HEPES 10 mM/NaCl 150 mM/pH 7.4 buffer 3×2 mL, using a magnet to separate out the microspheres from the washings. The microspheres were suspended in 1 mL of the same buffer. The aptamer 5′-/5BioTEG//iSp18//iSp18/ATCTCGGTCTCGGGACGACAGGATTTTCCTCAATGAAGTGGGTCGTCCCGAGACC-3′ (SEQ ID NO:7) (IDT, Coralville, Iowa, USA), 2 nmoles, was dissolved in 10 mL of the buffer and added slowly drop-wise to the microsphere suspension under continuous shaking. The mixture was incubated for one hour and then washed 3×, once with a 1 mL volume then twice with 200 μL volumes after transfer to a 1.5 mL microcentrifuge tube. The washed microspheres were resuspended in 1 mL of buffer and stored at 4° C. until use. For a biotin binding site:aptamer ratio of 1:1, i.e. saturated, 800 μL of microspheres were prepared as above, with the exception that they were resuspended in 400 uL of buffer with 8 nmoles of aptamer then added.
# Aptamer functionalized microspheres (200 uL containing 0.4 nmoles of aptamer were washed 1×200 μL of binding buffer and then resuspended in 100 μl of the same buffer. The insulin-PEO12-oligonucleotide conjugate in 0.5 nmoles, in 37 μL of water, was added to the suspension and incubated, with constant mixing by inversion, overnight at room temperature, protected from light.
# All release experiments were carried out in water containing NaCl (140 mM), KCl (5 mM), and MgCl2 (1.2 mM), buffered to pH 7.4 with Tris (20 mM). Streptavidin coated microspheres were mixed with biotinylated aptamer to obtain aptamer coated microspheres, see above for detailed preparation. […] On addition of six micromolar quinine at three and one half hours an additional pulse with analogous characteristics of the first pulse was observed. A third analogous pulse can be triggered using eighteen micromolar quinine. […]
# [3] = target: cocaine aptamer MNS-1; assay: Fluorescence screening of FDA approved drugs against fluorescein-labeled aptamer MNS-1 with DABCYL quencher oligonucleotide 1-Q; assay type: binding; conditions: 20 mM Tris-HCl pH 7.4, 50 nM MNS-1, 150 nM 1-Q, 30 min incubation
# Procedure: Oligonucleotides MNS-1 and 1-Q were custom-made and HPLC purified by Integrated DNA Technologies, Inc (Coralville, Iowa, USA) and were used as received. The base sequence for MNS-1 is: 5′-fluorescein-ATCTCGGGACGACAGGATTTTCCTCAATGAAGTGGGTCGTCCC (SEQ ID NO:4), and 1-Q is: 5′-GTC GTC CCG AGA T-dabcyl (SEQ ID NO:5). All compounds (except cocaine) were purchased from Sigma-Aldrich Co. (St. Louis, Mo., USA). All measurements were performed in 20 mM Tris-HCl pH 7.4, 140 mM NaCl, 5 mM KCl, 2 mM MgCl2. Mixture of MNS-1 and 1-Q was incubated for 5 min at room temperature, then a series of standard dilutions of all compounds were added to the mixture solutions of MNS-1 and 1-Q to final concentrations of 50 nM and 150 nM respectively. Measurements were performed after an incubation time of 30 min. The measurements were performed on a Perkin-Elmer Victor II microplate reader (Wallac, Finland) with a 485-nm excitation filter and a 535-nm emission filter. […]
# [4] = system: Spiegelmer (L-MNS); assay: Spiegelmer (L-MNS) binding of quinine; conditions: same conditions as MNS-1/1-Q
# Description: ) binding of quinine. […] from ChemGenes (Wilmington, Mass.). Note that the sequence and label are same as mns-1, 1-Q, measurement conditions and concentrations were also the same (see FIG. 4, and Materials and Methods section in Example section 6). […] Oligonucleotides MNS-1 and 1-Q were custom-made and HPLC purified by Integrated DNA Technologies, Inc (Coralville, Iowa, USA) and were used as received. The base sequence for MNS-1 is: 5'-fluorescein-[NT] ID NO:4), and 1-Q is: 5'-[NT]-dabcyl (SEQ ID NO:5). […] (St. Louis, Mo., USA). All measurements were performed in 20 mM Tris-HCl pH 7.4, 140 mM NaCl, 5 mM KCl, 2 mM MgCl2. […] Measurements were performed after an incubation time of 30 min. The measurements were performed on a Perkin-Elmer Victor II microplate reader (Wallac, Finland) with a 485-nm excitation filter and a 535-nm emission filter.
# [5] = system: rat hepatoma cell insulin signaling pathways (McA-RH7777); assay: Tissue culture and insulin signaling assay; assay type: cell-based; conditions: 100 nM for 10 min, McA-RH7777 cells, in triplicate
# Procedure: McA-RH7777, rat hepatoma cells were grown in DMEM media with 20% fetal bovine serum. Cells were incubated in serum-free medium for 5 hours and treated with insulin and insulin-oligonucleotide conjugate at the concentration of 100 nM for 10 min. Cell lysates were prepared in SDS lysis buffer (2% SDS, 62.5 mM Tris HCL (pH 6.8), 10% glycerol, 50 mM DTT, 0.01% Bromophenol Blue). All antibodies were purchased from Cell Signaling Technology (Danvers, Mass.).
compound,measurement,setting,value
"5′-TCTCGGGACGACCCACTTCATTG-3′ (TCTCGGGACGACCCACTTCATTG; listed as DNA, chemistry not given here) [oligonucleotide inhibitor]",blocking of insulin-conjugate release in the presence of quinine,"[1]; 1 μM inhibitor, SPR",block the release of the insulin-conjugate
"C[C@]12CCC(=O)C=C1CC[C@@H]1[C@@H]2[C@@H](O)C[C@@]2(C)[C@H]1CC[C@]2(O)C(=O)COC(=O)CCC(=O)O [hydrocortisone-21-hemisuccinate (HHS), hydrocortisone-21-hemisuccinate]",triggering of insulin conjugate release from microspheres,"[2]; 250 μM, soaking for a total of 60 minutes",sluggishly
same,triggering of insulin conjugate release from microspheres,[2]; higher concentrations than 250 μM,significant release of the conjugate
C=C[C@H]1C[N@@]2CC[C@H]1C[C@H]2[C@H](O)c1ccnc2ccc(OC)cc12 [quinine],Kd,[3],~600 nM
same,binding to the spiegelmer of the aptamer,[4],bound to the spiegelmer of the aptamer
same,insulin-conjugate boluses by escalating quinine concentrations,"[1]; 0, 2 and 8 μM quinine, or 1.5, 6 and 18 μM after pre-washing the chip, SPR",desired profile with three postprandial boluses
same,triggered release of (5) from microspheres,"[2]; two micromolar quinine, pH 7.4",a pulse of (5) was released
Fluorescein-5′-GTC GTC CCG AGA CCG AGA T-3′-L1-Insulin [insulin conjugate],activity of insulin conjugate on insulin signaling,[5],full activity
same,line of best fit slope of initial rate data for dissociation,"[1]; SA chip (Biacore), fitted from 15 to 25 minutes",−0.1399 fmol mm^−2 min^−1
same,observed initial dissociation rate,"[1]; SA chip (Biacore), no quinine",0.14 fmol mm^−2 min^−1
